For 14 compounds, IC50 results are on record in ChEMBL document CHEMBL4014348, “Design, Multicomponent Synthesis, and Anticancer Activity of a Focused Histone Deacetylase (HDAC) Inhibitor Library with Peptoid-Based Cap Groups” (J Med Chem, 2017).

In test [1] the target is T1, Histone deacetylase 1/2/3/6 (Homo sapiens, UniProt Q13547+O15379+Q9UBN7+Q92769). Kind of test: Inhibition of HDAC1/2/3/6 in human A2780 cells using Boc-Lys(epsilon-Ac)-AMC as substrate preincubated for 18 hrs followed by substrate addition measured after 3 hrs by fluorescence assay. Type of test: cell-based.
Test [2] concerns the target T1, Histone deacetylase 1/2/3/6. Kind of test: Inhibition of HDAC1/2/3/6 in human A2780cisR cells using Boc-Lys(epsilon-Ac)-AMC as substrate preincubated for 18 hrs followed by substrate addition measured after 3 hrs by fluorescence assay. The class given is cell-based.
For test [3] the target is unchanged. Kind of test: Inhibition of HDAC1/2/3/6 in human Cal27 cells using Boc-Lys(epsilon-Ac)-AMC as substrate preincubated for 18 hrs followed by substrate addition measured after 3 hrs by fluorescence assay. Type of test: cell-based.
Test [4] has as its system A2780cisR. Kind of test: Cytotoxicity against human A2780cisR cells assessed as cell survival after 72 hrs by MTT assay. The class given is functional, cell-based. (Tetrazolium assays rely on reduction of a dye to a coloured formazan, in cell work by metabolically active cells.)
The subject of test [5] is A2780. Kind of test: Cytotoxicity against human A2780 cells assessed as cell survival after 72 hrs by MTT assay. Type of test: functional, cell-based. The settings on record: A2780, 72 h.
Test [6] has as its system CAL-27. Kind of test: Cytotoxicity against human CAL27 cells assessed as cell survival after 72 hrs by MTT assay. The settings on record: CAL-27, 72 h. Type of test: functional, cell-based.
Test [7] deals with T1, Histone deacetylase 1/2/3/6. Kind of test: Inhibition of HDAC1/2/3/6 in human Cal27CisR cells using Boc-Lys(epsilon-Ac)-AMC as substrate preincubated for 18 hrs followed by substrate addition measured after 3 hrs by fluorescence assay. The class given is cell-based.
A short description of test [8]: Cytotoxicity against human Cal27CisR cells assessed as cell survival after 72 hrs by MTT assay. The class given is functional, cell-based.
Test [9] addresses Histone deacetylase 1 (Homo sapiens, UniProt Q13547). Kind of test: Inhibition of C-terminal FLAG/His-tagged recombinant human HDAC1 expressed in baculovirus infected Sf9 insect cells using Z-(Ac)Lys-AMC as substrate measured after 90 mins by fluorescence assay.
Test [10] addresses T2, Protein deacetylase HDAC6 (Homo sapiens, UniProt Q9UBN7).
T2 sequence (Q9UBN7 whole entry): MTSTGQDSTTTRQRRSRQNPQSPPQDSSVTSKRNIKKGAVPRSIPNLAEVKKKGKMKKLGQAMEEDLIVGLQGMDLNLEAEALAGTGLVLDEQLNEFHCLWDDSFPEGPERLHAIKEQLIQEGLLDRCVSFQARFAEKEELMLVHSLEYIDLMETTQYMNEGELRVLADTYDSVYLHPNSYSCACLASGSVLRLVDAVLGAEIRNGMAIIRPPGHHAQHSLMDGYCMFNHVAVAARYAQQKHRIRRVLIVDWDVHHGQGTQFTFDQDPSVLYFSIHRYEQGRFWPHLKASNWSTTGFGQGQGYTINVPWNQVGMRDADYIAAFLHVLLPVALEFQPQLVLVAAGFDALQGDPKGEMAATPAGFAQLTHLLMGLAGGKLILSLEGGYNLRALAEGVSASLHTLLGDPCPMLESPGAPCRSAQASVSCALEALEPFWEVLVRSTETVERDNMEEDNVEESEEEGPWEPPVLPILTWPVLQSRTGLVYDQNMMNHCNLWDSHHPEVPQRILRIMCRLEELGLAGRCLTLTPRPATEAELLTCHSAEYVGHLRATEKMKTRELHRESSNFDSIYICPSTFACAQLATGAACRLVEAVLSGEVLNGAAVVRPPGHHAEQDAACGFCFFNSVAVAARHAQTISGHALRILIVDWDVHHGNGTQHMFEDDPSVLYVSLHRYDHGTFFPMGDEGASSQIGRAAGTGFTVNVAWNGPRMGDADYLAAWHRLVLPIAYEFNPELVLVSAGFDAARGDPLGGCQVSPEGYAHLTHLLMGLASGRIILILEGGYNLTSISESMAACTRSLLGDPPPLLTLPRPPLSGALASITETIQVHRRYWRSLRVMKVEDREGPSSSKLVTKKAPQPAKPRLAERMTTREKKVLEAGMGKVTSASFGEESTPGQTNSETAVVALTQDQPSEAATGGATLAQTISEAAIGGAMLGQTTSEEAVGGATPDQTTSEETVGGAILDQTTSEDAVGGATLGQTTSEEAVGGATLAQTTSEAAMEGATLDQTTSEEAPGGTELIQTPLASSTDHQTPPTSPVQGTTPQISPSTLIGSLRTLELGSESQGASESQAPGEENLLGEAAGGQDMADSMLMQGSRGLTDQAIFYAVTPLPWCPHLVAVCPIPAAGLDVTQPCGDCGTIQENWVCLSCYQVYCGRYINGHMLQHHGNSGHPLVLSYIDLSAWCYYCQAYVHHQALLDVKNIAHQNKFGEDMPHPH
Kind of test: Inhibition of N-terminal GST-tagged recombinant human HDAC6 expressed in baculovirus infected Sf9 insect cells using Z-(Ac)Lys-AMC as substrate measured after 90 mins by fluorescence assay.

The target of test [11] is Histone deacetylase 3/Nuclear receptor corepressor 2 (HDAC3/NCoR2) (Homo sapiens, UniProt O15379). Kind of test: Inhibition of full length human recombinant C-terminal His-tagged HDAC3/NcoR2 expressed in baculovirus infected Sf9 insect cells using Boc-Lys(epsilon-Ac)-AMC as substrate measured after 90 mins by fluorescence assay.
Test [12] deals with Histone deacetylase 2 (Homo sapiens, UniProt Q92769). Kind of test: Inhibition of full length human recombinant C-terminal FLAG-tagged HDAC2 expressed in baculovirus infected Sf9 insect cells using Boc-Lys(epsilon-Ac)-AMC as substrate measured after 90 mins by fluorescence assay. Type of test: cell-based.
The target of test [13] is T3, Histone deacetylase 8 (Homo sapiens, UniProt Q9BY41).
T3 sequence (Q9BY41 whole entry): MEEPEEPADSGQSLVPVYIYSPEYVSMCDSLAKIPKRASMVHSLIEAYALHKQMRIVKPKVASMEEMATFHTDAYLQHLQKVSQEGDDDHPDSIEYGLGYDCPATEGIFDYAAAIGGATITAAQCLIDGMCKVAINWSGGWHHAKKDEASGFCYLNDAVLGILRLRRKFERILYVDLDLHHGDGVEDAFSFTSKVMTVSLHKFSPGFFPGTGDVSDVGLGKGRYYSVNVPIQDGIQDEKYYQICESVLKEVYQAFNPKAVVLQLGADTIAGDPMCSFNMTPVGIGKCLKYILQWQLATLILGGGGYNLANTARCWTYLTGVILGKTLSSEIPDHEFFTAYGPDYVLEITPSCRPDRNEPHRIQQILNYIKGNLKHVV
Kind of test: Inhibition of human recombinant HDAC8 expressed in Escherichia coli using Z-L-Lys(epsilon-trifluoroacetyl)-AMC as substrate measured after 90 mins by fluorescence assay.

Sequence of Histone deacetylase 1 (Q13547 whole entry): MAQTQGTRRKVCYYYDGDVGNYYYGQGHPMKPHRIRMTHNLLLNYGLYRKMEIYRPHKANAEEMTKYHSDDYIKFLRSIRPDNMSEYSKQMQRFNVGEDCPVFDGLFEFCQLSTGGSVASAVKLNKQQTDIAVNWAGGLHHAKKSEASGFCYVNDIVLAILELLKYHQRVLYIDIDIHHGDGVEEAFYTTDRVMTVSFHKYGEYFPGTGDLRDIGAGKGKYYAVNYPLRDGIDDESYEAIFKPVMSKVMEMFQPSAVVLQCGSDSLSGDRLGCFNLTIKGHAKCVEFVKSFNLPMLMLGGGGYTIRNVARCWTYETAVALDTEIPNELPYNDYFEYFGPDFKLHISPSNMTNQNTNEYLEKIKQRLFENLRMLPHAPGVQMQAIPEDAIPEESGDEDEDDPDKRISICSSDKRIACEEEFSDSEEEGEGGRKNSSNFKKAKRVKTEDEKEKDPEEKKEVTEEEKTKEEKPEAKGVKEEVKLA
Sequence of Histone deacetylase 2 (Q92769 whole entry): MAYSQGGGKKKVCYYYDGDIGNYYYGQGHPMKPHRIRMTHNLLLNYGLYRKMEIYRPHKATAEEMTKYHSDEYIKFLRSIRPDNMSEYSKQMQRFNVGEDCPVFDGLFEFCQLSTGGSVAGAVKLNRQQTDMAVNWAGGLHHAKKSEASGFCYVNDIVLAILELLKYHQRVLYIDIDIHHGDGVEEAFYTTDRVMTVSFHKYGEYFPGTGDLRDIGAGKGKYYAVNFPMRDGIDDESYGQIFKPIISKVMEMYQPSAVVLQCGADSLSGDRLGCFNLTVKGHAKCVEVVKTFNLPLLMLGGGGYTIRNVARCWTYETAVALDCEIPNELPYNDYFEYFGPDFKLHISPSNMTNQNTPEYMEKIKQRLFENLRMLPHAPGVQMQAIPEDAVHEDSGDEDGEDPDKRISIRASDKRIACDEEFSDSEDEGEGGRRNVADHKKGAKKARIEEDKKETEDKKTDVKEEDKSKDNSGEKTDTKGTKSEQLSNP
Sequence of Histone deacetylase 3/Nuclear receptor corepressor 2 (HDAC3/NCoR2) (O15379 whole entry): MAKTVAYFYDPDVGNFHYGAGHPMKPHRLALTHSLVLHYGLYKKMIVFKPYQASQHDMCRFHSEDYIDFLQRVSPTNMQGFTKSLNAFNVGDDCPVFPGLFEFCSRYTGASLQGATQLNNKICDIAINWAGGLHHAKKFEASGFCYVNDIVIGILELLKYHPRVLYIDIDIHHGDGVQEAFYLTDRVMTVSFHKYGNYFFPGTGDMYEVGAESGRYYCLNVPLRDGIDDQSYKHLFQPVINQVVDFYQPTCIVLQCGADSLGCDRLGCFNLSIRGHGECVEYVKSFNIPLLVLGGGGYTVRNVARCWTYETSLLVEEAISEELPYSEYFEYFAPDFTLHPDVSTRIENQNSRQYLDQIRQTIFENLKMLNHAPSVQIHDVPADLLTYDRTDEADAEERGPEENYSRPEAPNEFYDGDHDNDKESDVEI
Sequence of Histone deacetylase 3/Nuclear receptor corepressor 2 (HDAC3/NCoR2) (Q9Y618 whole entry, further chain): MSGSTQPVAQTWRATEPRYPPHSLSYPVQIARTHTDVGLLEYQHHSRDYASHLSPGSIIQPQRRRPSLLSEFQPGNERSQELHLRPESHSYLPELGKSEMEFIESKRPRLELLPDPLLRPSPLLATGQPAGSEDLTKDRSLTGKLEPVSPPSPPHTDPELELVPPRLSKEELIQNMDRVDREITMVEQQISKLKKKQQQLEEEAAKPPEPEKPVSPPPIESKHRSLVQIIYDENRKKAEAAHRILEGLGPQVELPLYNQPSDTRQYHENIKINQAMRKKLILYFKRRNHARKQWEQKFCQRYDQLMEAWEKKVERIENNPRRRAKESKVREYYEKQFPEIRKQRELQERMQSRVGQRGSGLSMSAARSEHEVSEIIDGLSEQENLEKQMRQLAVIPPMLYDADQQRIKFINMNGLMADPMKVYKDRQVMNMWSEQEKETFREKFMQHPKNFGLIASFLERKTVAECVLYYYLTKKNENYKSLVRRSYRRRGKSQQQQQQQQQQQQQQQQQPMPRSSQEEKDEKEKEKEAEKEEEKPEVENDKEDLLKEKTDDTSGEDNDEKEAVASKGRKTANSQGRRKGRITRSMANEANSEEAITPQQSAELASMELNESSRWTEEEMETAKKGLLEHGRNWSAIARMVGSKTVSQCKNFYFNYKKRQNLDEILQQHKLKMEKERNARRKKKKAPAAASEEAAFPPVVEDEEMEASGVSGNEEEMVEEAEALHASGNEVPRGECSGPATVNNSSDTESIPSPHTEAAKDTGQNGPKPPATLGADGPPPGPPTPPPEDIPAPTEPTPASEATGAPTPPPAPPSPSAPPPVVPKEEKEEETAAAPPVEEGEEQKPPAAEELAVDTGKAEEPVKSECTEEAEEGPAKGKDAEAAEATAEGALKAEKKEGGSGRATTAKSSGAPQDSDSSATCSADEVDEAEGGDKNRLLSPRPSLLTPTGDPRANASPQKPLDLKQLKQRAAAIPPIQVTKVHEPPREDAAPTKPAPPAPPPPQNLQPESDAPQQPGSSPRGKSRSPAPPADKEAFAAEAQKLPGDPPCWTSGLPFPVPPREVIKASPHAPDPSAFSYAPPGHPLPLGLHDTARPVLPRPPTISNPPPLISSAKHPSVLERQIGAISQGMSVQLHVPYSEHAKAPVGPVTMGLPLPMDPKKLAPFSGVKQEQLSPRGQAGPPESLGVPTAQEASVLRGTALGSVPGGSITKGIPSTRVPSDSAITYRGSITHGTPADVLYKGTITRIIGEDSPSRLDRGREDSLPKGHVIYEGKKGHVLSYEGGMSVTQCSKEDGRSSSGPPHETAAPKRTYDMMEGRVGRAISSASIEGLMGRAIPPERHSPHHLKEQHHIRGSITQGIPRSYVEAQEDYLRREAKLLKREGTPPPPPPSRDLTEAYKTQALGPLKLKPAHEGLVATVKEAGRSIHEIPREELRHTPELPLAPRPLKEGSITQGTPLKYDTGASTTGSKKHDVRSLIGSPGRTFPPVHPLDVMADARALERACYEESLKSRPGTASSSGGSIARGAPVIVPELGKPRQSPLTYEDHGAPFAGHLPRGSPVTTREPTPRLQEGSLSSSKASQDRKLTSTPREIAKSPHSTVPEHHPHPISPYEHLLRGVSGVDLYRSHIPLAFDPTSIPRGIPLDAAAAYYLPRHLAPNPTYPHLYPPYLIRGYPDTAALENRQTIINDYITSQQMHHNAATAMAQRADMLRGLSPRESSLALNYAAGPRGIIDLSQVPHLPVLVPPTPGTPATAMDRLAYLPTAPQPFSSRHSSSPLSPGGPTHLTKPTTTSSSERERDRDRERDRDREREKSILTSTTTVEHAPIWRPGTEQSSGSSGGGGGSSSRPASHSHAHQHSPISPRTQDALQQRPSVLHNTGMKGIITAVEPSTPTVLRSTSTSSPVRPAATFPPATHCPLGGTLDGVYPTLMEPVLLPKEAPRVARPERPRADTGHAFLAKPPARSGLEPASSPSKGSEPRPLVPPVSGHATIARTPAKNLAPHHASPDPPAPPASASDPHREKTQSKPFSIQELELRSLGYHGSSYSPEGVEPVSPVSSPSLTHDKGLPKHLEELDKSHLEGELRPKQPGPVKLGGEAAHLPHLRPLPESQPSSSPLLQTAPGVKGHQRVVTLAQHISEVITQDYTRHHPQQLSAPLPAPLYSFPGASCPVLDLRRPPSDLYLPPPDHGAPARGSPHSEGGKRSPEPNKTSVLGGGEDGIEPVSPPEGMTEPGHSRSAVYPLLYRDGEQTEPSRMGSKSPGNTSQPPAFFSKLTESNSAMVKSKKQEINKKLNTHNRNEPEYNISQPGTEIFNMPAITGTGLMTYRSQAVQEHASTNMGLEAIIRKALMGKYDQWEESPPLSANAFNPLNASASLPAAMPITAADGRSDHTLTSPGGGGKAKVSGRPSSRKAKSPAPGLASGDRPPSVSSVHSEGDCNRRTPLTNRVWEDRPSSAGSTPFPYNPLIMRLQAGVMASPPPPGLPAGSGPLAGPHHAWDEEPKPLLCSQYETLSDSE

Take `CN(C)c1ccc(C(=O)N(CCCCCC(=O)NO)CC(=O)NC2CCCCC2)cc1`: the IC50 (in general, the midpoint of a concentration-inhibition curve) in [1] came out at 1.42 µM; in [2] it was 1.9 µM; in test [3] it was 1.4 µM; in test [4], 3.31 µM; in test [5], 1.54 µM; in test [6] it was 2.97 µM. Moreover, the IC50 in [7] is 1.52 µM; in test [8], 35.5 µM.
As for `Cc1ccc(NC(=O)CN(CCCCCC(=O)NO)C(=O)c2ccc(N(C)C)cc2)cc1`, the IC50 in test [1] came to 0.66 µM; in [2] it was 0.68 µM; in test [3], 0.37 µM; in test [4] it was 1.61 µM; in test [5], 0.4 µM; in test [6] it was 0.53 µM. The IC50 amounted to 0.0964 µM in [9]; 0.106 µM in test [10]; 0.016 µM in test [11]; 0.146 µM in test [12]; 6.76 µM in [13]; 0.49 µM in test [7]. In test [8], the IC50 came to 0.6 µM.
`CN(C)c1ccc(C(=O)N(CCCCCC(=O)NO)CC(=O)NC(C)(C)C)cc1`: the IC50 is 2.06 µM in test [1]; 2.49 µM in test [2]; 1.78 µM in [3]; 5.18 µM in test [4]; 1.03 µM in test [5]; 4.04 µM in test [6]. The IC50 was determined as 1.97 µM in test [7] and 2.18 µM in [8].
For the compound `CC(C)(C(=O)NC1CCCCC1)N(CCCCCC(=O)NO)C(=O)c1ccccc1`, the IC50 in test [1] was found to be 37.9 µM; in test [2], 44.9 µM; in test [3] it was 26.2 µM; in test [4] it was 281 µM; in test [5], 295 µM; in test [6] it was 66.9 µM. The values for the IC50 in [7] and in [8] were 43 µM and 4.07 µM, respectively.
Consider `CC(C)CNC(=O)CN(CCCCCC(=O)NO)C(=O)c1ccc(N(C)C)cc1`, for which the IC50 was 1.09 µM in [1]; 0.82 µM in [2]; 0.87 µM in test [3]; 3.19 µM in test [4]; 1.9 µM in test [5]; 1.87 µM in [6]. Besides, the figures for the IC50 in [7] and in [8] were 0.8 µM and 2.11 µM, respectively.
As for `Cc1ccc(C(C(=O)NC2CCCCC2)N(CCCCCC(=O)NO)C(=O)c2ccccc2)cc1` (configuration not stated), the IC50 in test [1] amounted to 2.81 µM; in test [2], 3.63 µM; in test [3], 2.94 µM; in test [4], 4.29 µM; in test [5] it was 2.09 µM; in [6] it was 4.52 µM. The IC50 in test [7] worked out at 3.22 µM; in test [8], 19 µM.
With `CC(C)(C)NC(=O)CN(CCCCCC(=O)NO)C(=O)c1ccccc1`, the IC50 in test [1] was 8.98 µM; in [2], 9.51 µM; in [3], 6.85 µM; in test [4], 42.4 µM; in test [5] it was 20.7 µM; in [6], 16.7 µM. The values for the IC50 in test [7] and in test [8] were 4.59 µM and 19.5 µM, respectively.
With `O=C(CCCCCN(C(=O)c1ccccc1)C1(C(=O)NC2CCCCC2)CCCCC1)NO`, the IC50 in test [1] was 13.4 µM; in test [2] it was 10.1 µM; in test [3] it was 14.3 µM; in test [4] it was 50.5 µM; in test [5], 42.6 µM; in [6], 44.1 µM. For the same compound, the IC50 stood at 10.2 µM in [7] and 77.5 µM in test [8].
For `O=C(CCCCCN(C(=O)c1ccccc1)C(C(=O)NC1CCCCC1)c1ccccc1)NO` (configuration not stated), the IC50 is 3.14 µM in test [1]; 2.92 µM in [2]; 2.06 µM in test [3]; 5.18 µM in [4]; 3.87 µM in test [5]; 6.36 µM in test [6]. Also, the IC50 in test [7] was found to be 2.65 µM; in [8], 5.28 µM.
`O=C(CCCCCN(CC(=O)NC1CCCCC1)C(=O)c1ccccc1)NO`: the IC50 amounted to 1.66 µM in test [1]; 1.13 µM in test [2]; 1.34 µM in test [3]; 8.21 µM in test [4]; 3.46 µM in test [5]; 3.8 µM in test [6]. Further, the IC50 in test [7] was 1.08 µM; in test [8], 10.3 µM.
Consider `CN(C)c1ccc(C(=O)N(CCCCCC(=O)NO)C(C)(C)C(=O)NC2CCCCC2)cc1`, for which the IC50 is 24.5 µM in test [1]; 30.8 µM in test [2]; 18.2 µM in test [3]; 107 µM in test [4]; 68.5 µM in [5]; 47.7 µM in test [6]. The IC50 in [7] came to 28.8 µM; in test [8] it was 46.1 µM.
`O=C(CCCCCN(CC(=O)NC1CCCCC1)C(=O)c1cccc2ccccc12)NO`: the IC50 in [1] is 0.96 µM; in [2], 1.29 µM; in test [3], 0.75 µM; in test [4], 4.12 µM; in [5], 0.26 µM; in [6] it was 2.4 µM. In addition, the figures for the IC50 in test [7] and in test [8] were 0.6 µM and 5.6 µM, respectively.
On to `CC(C)(C)NC(=O)C(C)(C)N(CCCCCC(=O)NO)C(=O)c1ccccc1`, for which the IC50 in test [1] was 127 µM; in test [2] it was 102 µM; in test [3], 92.5 µM; in test [4] it was 579 µM; in test [5] it was 207 µM; in [6] it was 75.8 µM. Also, the IC50 stood at 132 µM in test [7] and 13.8 µM in test [8].
On to `Cc1ccc(NC(=O)CN(CCCCCC(=O)NO)C(=O)c2cc(C)cc(C)c2)cc1`, for which the IC50 was found to be 1.3 µM in test [1]; 0.81 µM in test [2]; 0.95 µM in [3]; 2.18 µM in test [4]; 1.27 µM in test [5]; 1.67 µM in test [6]. The IC50 in test [7] was 0.8 µM; in test [8] it was 2.11 µM.
